According to patent US8871753B2, “Macrocyclic compounds and their use as kinase inhibitors” (Incyte Corporation, priority 2008, dated 2014):
pIC50: −log10 of the molar value. Counter-ions that a name gives are not always drawn. Like-named read-outs stand apart in the source and are kept apart here.

Assays:
Assay type in all cases: biochemical
[1] = target: T1, human JAK3 (a.a. 781-1124) (Homo sapiens, UniProt P52333); assay: In vitro JAK kinase assay (HTRF, phosphorylation of a biotinylated peptide), JAK3
T1 construct: JAK3 (a.a. 781-1124); His tag (N); made in house; host or cells: insect cells (baculovirus)
Summary of the method: (§1)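 Kinase reactions ran at room temperature for 1 h with ATP matched per isoform (JAK1 90 μM, JAK2 30 μM, JAK3 3 μM). After an EDTA stop, the phosphorylated biotin-peptide was read by HTRF using Eu-Py20 and SA-APC after 40 min binding.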

[2] = target: T2, human JAK1 (a.a. 837-1142) (Homo sapiens, UniProt P23458); assay: In vitro JAK kinase assay (HTRF, phosphorylation of a biotinylated peptide), JAK1; details: read-out: JAK1 IC50
T2 construct: human JAK1 (a.a. 837-1142); His tag (N); made in house; host or cells: insect cells (baculovirus)
Summary of the method: as §1

[3] = target: TYK2 (Homo sapiens, UniProt P29597); assay: TYK2 kinase inhibition (Table A1)
[4] = target: T3, Recombinant Human Anaplastic Lymphoma Kinase (Homo sapiens, UniProt Q9UM73); assay: ALK HTRF kinase assay
T3 construct: purchased Invitrogen, Carlsbad, Calif
Summary of the method: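 Recombinant human ALK with biotinylated peptide substrate; phosphorylation detected by HTRF using Eu-labelled anti-phosphotyrosine antibody and streptavidin-allophycocyanin. IC50 from a sigmoidal fit with Hill slope.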

[5] = target: T4, human JAK2 (a.a. 828-1132) (Homo sapiens, UniProt O60674); assay: In vitro JAK kinase assay (HTRF, phosphorylation of a biotinylated peptide), JAK2
T4 construct: JAK2 (a.a. 828-1132); His tag (N); made in house; host or cells: insect cells (baculovirus)
Summary of the method: as §1

[6] = method AA1 (3 μM ATP) or AA2 (1000 μM ATP), not stated per value
[7] = method AA1 (90 μM ATP) or AA2 (1000 μM ATP), not stated per value
[8] = compound at 500 nM or 1 mM, 90 μM ATP
[9] = method AA1 (30 μM ATP) or AA2 (1000 μM ATP), not stated per value
[10] = compound at a concentration of 500 nM or 1 mM (not specified), cells shown as percentage
[11] = Table B1, cells without percent sign

T2 sequence (P23458 849-1154): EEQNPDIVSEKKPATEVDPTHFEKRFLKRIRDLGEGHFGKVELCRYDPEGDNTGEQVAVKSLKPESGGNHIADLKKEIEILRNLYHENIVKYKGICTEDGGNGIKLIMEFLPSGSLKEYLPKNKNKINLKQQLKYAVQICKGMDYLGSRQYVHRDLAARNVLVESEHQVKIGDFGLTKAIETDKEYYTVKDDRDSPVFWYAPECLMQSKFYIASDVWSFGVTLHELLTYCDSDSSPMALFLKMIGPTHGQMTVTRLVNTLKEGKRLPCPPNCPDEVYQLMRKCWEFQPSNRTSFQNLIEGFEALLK
T4 sequence (O60674 828-1132): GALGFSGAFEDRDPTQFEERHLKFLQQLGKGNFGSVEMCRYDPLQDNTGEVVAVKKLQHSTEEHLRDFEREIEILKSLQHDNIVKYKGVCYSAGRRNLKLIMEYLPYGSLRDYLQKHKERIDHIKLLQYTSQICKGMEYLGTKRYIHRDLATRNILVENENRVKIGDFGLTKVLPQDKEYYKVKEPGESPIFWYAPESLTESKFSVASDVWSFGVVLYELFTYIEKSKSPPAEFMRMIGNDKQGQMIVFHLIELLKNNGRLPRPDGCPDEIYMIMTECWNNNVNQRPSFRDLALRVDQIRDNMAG
Chain of TYK2 (P29597 whole entry): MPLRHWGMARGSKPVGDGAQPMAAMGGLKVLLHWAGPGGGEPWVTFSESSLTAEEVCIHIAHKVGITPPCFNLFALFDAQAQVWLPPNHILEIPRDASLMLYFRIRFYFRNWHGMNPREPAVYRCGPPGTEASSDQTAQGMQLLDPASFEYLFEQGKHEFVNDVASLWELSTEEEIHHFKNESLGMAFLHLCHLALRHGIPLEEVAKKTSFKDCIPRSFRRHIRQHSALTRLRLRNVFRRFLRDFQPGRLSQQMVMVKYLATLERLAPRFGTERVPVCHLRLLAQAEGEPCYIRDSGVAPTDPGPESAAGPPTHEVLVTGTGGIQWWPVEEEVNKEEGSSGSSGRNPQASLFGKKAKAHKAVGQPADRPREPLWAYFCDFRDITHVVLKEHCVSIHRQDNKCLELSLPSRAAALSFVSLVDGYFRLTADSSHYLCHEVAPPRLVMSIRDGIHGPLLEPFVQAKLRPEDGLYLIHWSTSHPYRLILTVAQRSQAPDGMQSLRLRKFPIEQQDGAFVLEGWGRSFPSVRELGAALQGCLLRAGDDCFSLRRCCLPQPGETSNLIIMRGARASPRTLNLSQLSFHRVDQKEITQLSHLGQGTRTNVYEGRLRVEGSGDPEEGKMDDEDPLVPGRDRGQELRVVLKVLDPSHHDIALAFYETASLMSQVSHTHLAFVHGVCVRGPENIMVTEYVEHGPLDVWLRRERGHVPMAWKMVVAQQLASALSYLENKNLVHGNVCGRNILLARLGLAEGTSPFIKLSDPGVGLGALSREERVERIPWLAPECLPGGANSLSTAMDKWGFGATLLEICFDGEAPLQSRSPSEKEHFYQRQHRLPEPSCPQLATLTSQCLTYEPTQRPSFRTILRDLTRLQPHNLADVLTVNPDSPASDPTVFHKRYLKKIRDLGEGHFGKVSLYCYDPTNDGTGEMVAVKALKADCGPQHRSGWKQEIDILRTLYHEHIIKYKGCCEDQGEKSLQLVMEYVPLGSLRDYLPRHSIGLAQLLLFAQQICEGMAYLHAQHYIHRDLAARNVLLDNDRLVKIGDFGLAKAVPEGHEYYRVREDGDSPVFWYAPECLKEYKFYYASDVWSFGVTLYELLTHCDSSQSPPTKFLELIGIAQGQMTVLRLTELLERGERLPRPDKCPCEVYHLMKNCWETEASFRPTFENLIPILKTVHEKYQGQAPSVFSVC
T1 sequence (P52333 781-1124): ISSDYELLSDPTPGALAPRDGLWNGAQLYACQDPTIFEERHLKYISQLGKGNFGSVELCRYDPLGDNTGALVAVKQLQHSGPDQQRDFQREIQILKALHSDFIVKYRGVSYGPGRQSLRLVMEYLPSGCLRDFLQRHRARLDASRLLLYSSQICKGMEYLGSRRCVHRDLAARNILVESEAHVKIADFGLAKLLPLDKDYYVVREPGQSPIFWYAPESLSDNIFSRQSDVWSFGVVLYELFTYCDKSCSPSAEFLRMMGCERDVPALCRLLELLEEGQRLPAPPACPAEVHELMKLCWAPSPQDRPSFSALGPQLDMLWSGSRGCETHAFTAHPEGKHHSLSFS
T3 sequence (Q9UM73 19-1620): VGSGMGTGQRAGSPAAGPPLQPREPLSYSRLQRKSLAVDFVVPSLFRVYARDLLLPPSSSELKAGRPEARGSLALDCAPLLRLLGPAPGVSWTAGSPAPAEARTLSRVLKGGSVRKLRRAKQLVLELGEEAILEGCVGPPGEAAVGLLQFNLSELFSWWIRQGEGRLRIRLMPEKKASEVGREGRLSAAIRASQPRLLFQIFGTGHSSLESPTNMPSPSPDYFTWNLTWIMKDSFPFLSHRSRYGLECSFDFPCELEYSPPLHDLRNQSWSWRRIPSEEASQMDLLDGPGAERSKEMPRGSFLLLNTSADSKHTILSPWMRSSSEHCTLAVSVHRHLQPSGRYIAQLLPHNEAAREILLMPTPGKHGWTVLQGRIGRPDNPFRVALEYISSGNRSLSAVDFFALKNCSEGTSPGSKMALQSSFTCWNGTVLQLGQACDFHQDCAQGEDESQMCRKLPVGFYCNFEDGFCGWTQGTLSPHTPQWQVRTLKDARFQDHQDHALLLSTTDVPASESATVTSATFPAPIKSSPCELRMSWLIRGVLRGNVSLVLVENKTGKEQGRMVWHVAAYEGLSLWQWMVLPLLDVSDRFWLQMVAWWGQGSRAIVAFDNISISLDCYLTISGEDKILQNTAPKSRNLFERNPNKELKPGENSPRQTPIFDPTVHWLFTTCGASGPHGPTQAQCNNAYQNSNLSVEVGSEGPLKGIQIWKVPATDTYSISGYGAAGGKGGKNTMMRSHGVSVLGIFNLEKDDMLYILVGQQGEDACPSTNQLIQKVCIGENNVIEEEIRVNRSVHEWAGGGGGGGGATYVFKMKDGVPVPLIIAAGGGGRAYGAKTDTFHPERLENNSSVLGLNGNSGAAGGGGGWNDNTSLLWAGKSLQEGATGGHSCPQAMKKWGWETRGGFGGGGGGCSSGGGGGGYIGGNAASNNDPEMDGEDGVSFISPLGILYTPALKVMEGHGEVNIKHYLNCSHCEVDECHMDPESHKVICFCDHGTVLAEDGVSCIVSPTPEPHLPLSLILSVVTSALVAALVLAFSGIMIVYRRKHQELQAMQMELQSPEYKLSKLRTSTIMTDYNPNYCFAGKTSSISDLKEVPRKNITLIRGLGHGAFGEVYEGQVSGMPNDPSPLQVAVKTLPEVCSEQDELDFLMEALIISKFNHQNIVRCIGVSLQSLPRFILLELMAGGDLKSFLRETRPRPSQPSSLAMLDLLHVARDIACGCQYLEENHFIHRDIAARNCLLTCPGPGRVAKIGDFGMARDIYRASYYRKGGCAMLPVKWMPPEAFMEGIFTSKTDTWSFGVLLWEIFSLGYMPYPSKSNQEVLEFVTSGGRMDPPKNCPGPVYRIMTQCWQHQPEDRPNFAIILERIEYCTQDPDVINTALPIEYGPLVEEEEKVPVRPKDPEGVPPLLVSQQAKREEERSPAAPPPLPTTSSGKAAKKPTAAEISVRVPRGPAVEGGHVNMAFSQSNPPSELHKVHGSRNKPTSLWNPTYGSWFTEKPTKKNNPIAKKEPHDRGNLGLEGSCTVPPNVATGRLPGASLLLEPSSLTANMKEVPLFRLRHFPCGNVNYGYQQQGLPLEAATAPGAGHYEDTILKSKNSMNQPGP

Row | SMILES | pIC50 [1, 6] | pIC50 [2, 7] | pIC50 [3] | ALK % of inhibition at a concentration of 500 nM or 1 mM [4, 8] [%] | pIC50 [5, 9] | pIC50 ([1]; Table B1) | pIC50 ([2]; Table B1) | pIC50 ([3]; Table B1) | pIC50 ([5]; Table B1) | also measured
1 | O=C(CN1CCNCC1)Nc1ccc2cc1CCc1cncc(c1)Nc1ncc(Cl)c(n1)N2 [Example A115, N-[6-Chloro-2,4,8,18,22-pentaazatetracyclo[14.3.1.1(3,7).1(9,13)]docosa-1(20),3(22),4,6,9(21),10,12,16,18-nonaen-12-yl]-2-piperazin-1-acetamide tetrakis(trifluoroacetate)] | 6.52 | 7.47 | 7.35 | 20 | 7.38 |  |  |  |  | 
2 | CCNC(=O)N1CC[C@@H](C(=O)Nc2ccc3cc2CCc2cccc(c2)Nc2ncc(Cl)c(n2)N3)C1 [Example A53, (3R)—N(3)-[6-Chloro-2,4,8,22-tetraazatetracyclo[14.3.1.1(3,7).1(9,13)]docosa-1(20),3(22),4,6,9(21),10,12,16,18-nonaen-12-yl]-N(1)-ethylpyrrolidine-1,3-dicarboxamide trifluoroacetate] | 8.49 | 8.21 | 7.85 | 35 | 8.92 |  |  |  |  | 
3 | Cn1ccc2c(NC(=O)N3CCN(C(=O)COc4ccc5cc4CCc4cccc(c4)Nc4ncc(Cl)c(n4)N5)CC3)cccc21 [Example A11, 4-({[6-Chloro-2,4,8,22-tetraazatetracyclo[14.3.1.1(3,7).1(9,13)]docosa-1(20),3(22),4,6,9(21),10,12,16,18-nonaen-12-yl]oxy}acetyl)-N-(1-methyl-1H-indol-4-yl)piperazine-1-carboxamide trifluoroacetate] | 7.80 | 8.47 | 8.02 | 12 | 8.25 |  |  |  |  | 
4 | CC(=O)N1CC[C@H](NC(=O)Nc2ccc3cc2CCc2cncc(c2)Nc2ncc(Cl)c(n2)N3)C1 [Example B226, N-[(3S)-1-Acetylpyrrolidin-3-yl]-N′-[6-chloro-2,4,8,18,22-pentaazatetracyclo[14.3.1.1(3,7).1(9,13)]docosa-1(20),3(22),4,6,9(21),10,12,16,18-nonaen-12-yl]urea bis(trifluoroacetate)] |  |  |  |  |  | 6.51 | 8.40 | 7.21 | 7.38 | ALK % of inhibition at a concentration of 500 nM or 1 mM [4, 10]: 15%
5 | Cn1c(NC(=O)c2cc3cc(c2)OCCSc2cccc(c2)Nc2nc(ncc2Cl)N3)nc2ccccc21 [Example D55, 6-Chloro-N-(1-methyl-1H-benzimidazol-2-yl)-17-oxa-14-thia-2,4,8,24-tetraazatetracyclo[16.3.1.1(3,7).1(9,13)]tetracosa-1(22),3(24),4,6,9(23),10,12,18,20-nonaene-20-carboxamide bis(trifluoroacetate)] |  |  |  |  |  |  |  |  |  | pIC50 ([1]; Table D1): 6.89; pIC50 ([2]; Table D1): 7.25; pIC50 ([3]; Table D1): 7.06; pIC50 ([4]; Table D1, 90 μM ATP): < 5.00; pIC50 ([5]; Table D1): 7.40
6 | CC(=O)N1CCN(C(=O)COc2ccc3cc2CCc2cccc(c2)Nc2ncc(Cl)c(n2)N3)CC1 [Example A20, 12-[2-(4-Acetylpiperazin-1-yl)-2-oxoethoxy]-6-chloro-2,4,8,22-tetraazatetracyclo[14.3.1.1(3,7).1(9,13)]docosa-1(20),3(22),4,6,9(21),10,12,16,18-nonaene trifluoroacetate] | 7.11 | 7.92 | 7.57 | 17 | 8.09 |  |  |  |  | 
7 | Cc1cccc(NC(=O)N2CCC(CC(=O)Nc3ccc4cc3CCc3cncc(c3)Nc3ncc(Cl)c(n3)N4)CC2)c1 [Example A150, 4-(2-{[6-Chloro-2,4,8,18,22-pentaazatetracyclo[14.3.1.1(3,7).1(9,13)]docosa-1(20),3(22),4,6,9(21),10,12,16,18-nonaen-12-yl]amino}-2-oxoethyl)-N-(3-methylphenyl)piperidine-1-carboxamide bis(trifluoroacetate)] | < 7.00 | 9.52 | 8.29 | 48 | 8.96 |  |  |  |  | 
8 | COc1cccc(S(=O)(=O)N2CCC(CC(=O)Nc3ccc4cc3CCc3cncc(c3)Nc3ncc(Cl)c(n3)N4)CC2)c1 [Example A196, N-[6-Chloro-2,4,8,18,22-pentaazatetracyclo[14.3.1.1(3,7).1(9,13)]docosa-1(20),3(22),4,6,9(21),10,12,16,18-nonaen-12-yl]-2-{1-[(3-methoxyphenyl)sulfonyl]piperidin-4-yl}acetamide bis(trifluoroacetate)] | < 6.70 | 7.82 | < 6.70 | 34 | 7.00 |  |  |  |  | 
9 | Clc1cnc2nc1Nc1cccc(c1)OCCc1cccc(c1)N2 [Example D8, 6-Chloro-14-oxa-2,4,8,23-tetraazatetracyclo[15.3.1.1(3,7).1(9,13)]tricosa-1(21),3(23),4,6,9(22),10,12,17,19-nonaene trifluoroacetate] |  |  |  |  |  |  |  |  |  | pIC50 ([1]; Table D1): 7.89; pIC50 ([2]; Table D1): 8.10; pIC50 ([3]; Table D1): 7.72; pIC50 ([4]; Table D1, 90 μM ATP): 6.45; pIC50 ([5]; Table D1): 8.27
10 | Cc1cc(C(=O)N2CC[C@@H](C(=O)Nc3ccc4cc3CCc3cccc(c3)Nc3ncc(Cl)c(n3)N4)C2)no1 [Example A122, (3R)—N-[6-Chloro-2,4,8,22-tetraazatetracyclo[14.3.1.1(3,7).1(9,13)]docosa-1(20),3(22),4,6,9(21),10,12,16,18-nonaen-12-yl]-1-[(5-methylisoxazol-3-yl)carbonyl]pyrrolidine-4-carboxamide trifluoroacetate] | 8.14 | 8.14 | 7.77 | 52 | 8.41 |  |  |  |  | 

The next lines start with results.

Row | pIC50 [1, 6] | pIC50 [2, 7] | pIC50 [3] | ALK % of inhibition at a concentration of 500 nM or 1 mM [4, 8] [%] | pIC50 [5, 9] | pIC50 ([1]; Table B1) | pIC50 ([2]; Table B1) | pIC50 ([3]; Table B1) | pIC50 ([5]; Table B1) | SMILES | also measured
11 | 7.00 | 7.25 | 6.76 | 30 | 7.21 |  |  |  |  | O=C(Nc1ccc2cc1CCc1cccc(c1)Nc1ncc(Cl)c(n1)N2)C1CCNCC1 [Example A28, N-[6-Chloro-2,4,8,22-tetraazatetracyclo[14.3.1.1(3,7).1(9,13)]docosa-1(20), 3(22),4,6,9(21),10,12,16,18-nonaen-12-yl]piperidine-4-carboxamide bis(trifluoroacetate)] | 
12 |  |  |  |  |  | 8.44 | 9.23 | 8.85 | 9.27 | O=C(Nc1ccc2cc1CCc1cccc(c1)Nc1ncc(Cl)c(n1)N2)c1ccc(F)cc1 [Example B49, N-[6-Chloro-2,4,8,22-tetraazatetracyclo[14.3.1.1(3,7).1(9,13)]docosa-1(20), 3(22),4,6,9(21),10,12,16,18-nonaen-12-yl]-4-fluorobenzamide trifluoroacetate] | pIC50 [4, 11]: 7.10
13 |  |  |  |  |  | 6.93 | 7.09 | 7.07 | 7.77 | O=C(Nc1ccccc1)c1ccc2cc1CCc1cccc(c1)Nc1ncc(Cl)c(n1)N2 [Example B200, 6-Chloro-N-phenyl-2,4,8,22-tetraazatetracyclo[14.3.1.1(3,7).1(9,13)]docosa-1(20),3(22),4,6,9(21),10,12,16,18-nonaene-12-carboxamide trifluoroacetate] | pIC50 [4, 11]: 5.36
14 | 8.14 | 8.30 | 8.12 | 33 | 7.96 |  |  |  |  | N[C@@H](CO)C(=O)Nc1ccc2cc1CCc1cccc(c1)Nc1ncc(Cl)c(n1)N2 [Example A109, (2S)-2-Amino-N-[6-chloro-2,4,8,22-tetraazatetracyclo[14.3.1.1(3,7).1(9,13)]docosa-1(20),3(22),4,6,9(21),10,12,16,18-nonaen-12-yl]-3-hydroxypropanamide bis(trifluoroacetate)] | 
15 |  |  |  |  |  | 9.52 | 9.29 | 9.21 | 9.82 | COc1cccc(S(=O)(=O)Nc2ccc3cc2CCc2cccc(c2)Nc2ncc(Cl)c(n2)N3)c1 [Example B157, N-[6-Chloro-2,4,8,22-tetraazatetracyclo[14.3.1.1(3,7).1(9,13)]docosa-1(20), 3(22),4,6,9(21),10,12,16,18-nonaen-12-yl]-3-methoxybenzenesulfonamide trifluoroacetate] | ALK % of inhibition at a concentration of 500 nM or 1 mM [4, 10]: 87%
16 |  |  |  |  |  | 8.19 | 8.52 | 8.24 | 8.49 | O=C(NCCNS(=O)(=O)c1ccccc1)Nc1ccc2cc1CCc1cccc(c1)Nc1ncc(Cl)c(n1)N2 [Example B329, N-{2-[({[6-Chloro-2,4,8,22-tetraazatetracyclo[14.3.1.1(3,7).1(9,13)]docosa-1(20),3(22),4,6,9(21),10,12,16,18-nonaen-12-yl]amino}carbonyl)amino]ethyl}benzenesulfonamide trifluoroacetate] | ALK % of inhibition at a concentration of 500 nM or 1 mM ([4]; percentage inhibition of the example compound at a concentration of 500 nM or 1 mM (not specified which)): 20%
